Marks after values point to notes of the source that are not given here.
Experiments:
P. falciparum CAM3.1 = assay: Multidrug-resistant parasite viability assay (SYBR green), CAM3.1; type: cell-based; conditions: Plasmodium falciparum, 72 h, read-out: multidrug resistant P. falciparum strains EC50 (SD) CAM3.1
Description: These assays were performed as previously described.[16] P. falciparum 3D7 parasites and resistant lines Dd2, W2mef, 7G8, and artemisinin‐resistant Cambodian isolate (Cam3.I (2539T)), and P. knowlesi YH1, were cultured in human O^+ erythrocytes (RBCs) (Australian Red Cross Blood Service), in RPMI‐HEPES culture medium (pH 7.4, 50 μg/mL hypoxanthine, 25 mM NaHCO3, 20 μg/mL gentamicin, 0.5 % Albumax II (GibcoBRL)) (Thermo Fisher Scientific) and maintained in an atmosphere of 1 % O2, 4 % CO2 and 95 % N2. Parasites were synchronised with 5 % (w/v) sorbitol (Sigma‐Aldrich) treatments for ring stages. Growth assays for measuring drug inhibition of in‐cycle, ring to schizont stage parasites have been described previously. Parasites were grown in 1 % haematocrit, at 1 % and 2 % parasitaemia for P. falciparum and P. knowlesi respectively. […] Parasitaemia was measured using a SYBR DNA staining assay on a fluorometer.[33] After the incubation period, supernatants were removed and well contents were resuspended in PBS.

[1] = test system: P. falciparum NF54 male gametes; assay: Dual gamete formation assay, male; type: cell-based; conditions: Plasmodium falciparum; NF54 stage V gametocytes, 48 h incubation; exflagellation 20 min after induction
Description: PfATP4 inhibitors are known to block the transmission of parasites from humans to mosquitoes by interfering with both gametocytes and gamete development.[29] We evaluated a subset of truncated analogues against male and female gametes using a previously described assay. In this assay, stage V gametocytes are treated with compounds and then xanthurenic acid is added and a drop in temperature is used to simulate the mosquito gut environment to induce gametogenesis. After 30 min of compound treatment, male gamete viability is determined by microscopy measuring exflagellation, and after 24 h of compound treatment, female viability is measured using a female gamete specific αPfs25 antibody.
The compounds were evaluated as previously described.[34] Briefly, mature P. falciparum NF54 stage V gametocytes were exposed to compounds for 48 h at 37 °C in 384 well plates in gametocyte culture medium (RPMI 1640 supplemented with 25 mM HEPES, 50 μg mL^−1 hypoxanthine, 4.8 g L^−1 NaHCO3, 2 mM L‐glutamine, 5 % pooled type AB serum, 0.5 % Albumax II (Gibco)) under a 1 % O2/ 3 % CO2/ 96 % N2 environment. Gametogenesis was then triggered by the addition of 10 μL ookinete medium (gametocyte culture medium supplemented with 100 μM xanthurenic acid and 0.27 μg mL^−1 Cy3‐labelled anti‐Pfs25 antibody) to each well at room temperature. Plates were then cooled on a metal block at 4 °C for four min to ensure even cooling and then stabilised for a further 4 min at 28 °C. At 20 min post‐induction, male gametogenesis was recorded in each well by automated brightfield microscopy using a x4 objective lens and 1.5x magnifier (x6 effective magnification). Afterward, plates were incubated in the dark at room temperature for 24 h and then female gametogenesis was recorded in each well by automated fluorescence microscopy (anti‐Pfs25‐positive cells). […] All data was evaluated in comparison to the positive and negative controls to calculate percentage inhibition of male and female gametocytes, and dose response analysis and EC50 calculation were performed using GraphPad Prism.

Rat hepatocyte stability = type: in vitro ADME; conditions: rat hepatocytes; read-out: Rat Hep CLint
Source text: (§1) Human liver microsome stability, rat hepatocyte stability, aqueous solubility and eLogD are platform assays conducted by TCG Lifesciences and undertaken using previously described protocols.[10]

[2] = test system: P. falciparum Dd2 PfATP4^triple (I398F, P990R, D1247Y) strain; assay: PfATP4 drug resistant parasite viability assay (LDH), Dd2 triple; type: cell-based; conditions: Plasmodium falciparum, DD2, 72 h, read-out: Dd2^triple EC50 (SD)
Description: (§2) These assays were performed according to a previously described protocol.[16] Briefly, P. falciparum Dd2 strains treated with compound were incubated for 72 h at 37 °C. After incubating for 72 h, plates were frozen at −80 °C and then thawed at room temperature for at least 2 h. LDH activity, a surrogate for parasite growth was measured by the addition of the Malstst reagent mix, followed by incubation for 30 min and absorbance read using a ClarioStar Microplate reader at 650 nm. Values were normalized to DMSO control as a percentage and EC50 and dose response curves generated using GraphPad Prism.

[3] = test system: P. falciparum Dd2 PfATP4^D425E strain; assay: 'compound 49' resistant parasite viability assay (LDH), Dd2 D425E; type: cell-based; conditions: Plasmodium falciparum, DD2, 72 h, read-out: Dd2^D425E EC50 (SD)
Description: as §2

eLogD shake-flask method = type: physicochemical
Source text: as §1

[4] = test system: P. knowlesi YH1 parasites; assay: P. knowlesi viability assay (SYBR green); type: cell-based; conditions: Plasmodium knowlesi, 48 h, read-out: P. knowlesi EC50 (SD) YH1
Description: These assays were performed as previously described.[16] […] Parasites were synchronised with 5 % (w/v) sorbitol (Sigma‐Aldrich) treatments for ring stages. […] Parasites were grown in 1 % haematocrit, at 1 % and 2 % parasitaemia for P. falciparum and P. knowlesi respectively. […] Parasitaemia was measured using a SYBR DNA staining assay on a fluorometer.[33] After the incubation period, supernatants were removed and well contents were resuspended in PBS.

SMILES	EC50 (P. falciparum CAM3.1)	EC50 [1]	hepatocyte CLint (Rat hepatocyte stability)	EC50 [2]	EC50 [3]	eLogD (eLogD shake-flask method)	EC50 [4]
CN1C(=O)c2ccc(Cl)cc2NC1(C)C(=O)Nc1cncc(Cl)c1 (stereo not drawn) [Compound 14, 7‐Chloro‐N‐(5‐chloro‐3‐pyridyl)‐2,3‐dimethyl‐4‐oxo‐1H‐quinazoline‐2‐carboxamide]	21 nM	130 nM	25 µL/min/1e6 cells	160 nM	55 nM	3.2^[d]	58 nM
CN1C(=O)c2ccc(-n3cccn3)cc2NC1(C)C(=O)Nc1cncc(Cl)c1 (stereo not drawn) [Compound 33, N‐(5‐Chloropyridin‐3‐yl)‐2,3‐dimethyl‐4‐oxo‐7‐(1H‐pyrazol‐1‐yl)‐1,2,3,4‐tetrahydroquinazoline‐2‐carboxamide]	60 nM	460 nM	14 µL/min/1e6 cells	584 nM	126 nM	3.2^[d]	101 nM
COc1cc(F)c2c(c1)NC(C)(C(=O)Nc1cncc(Cl)c1)N(C)C2=O (stereo not drawn) [Compound 36, N‐(5‐Chloropyridin‐3‐yl)‐5‐fluoro‐7‐methoxy‐2,3‐dimethyl‐4‐oxo‐1,2,3,4‐tetrahydroquinazoline‐2‐carboxamide]	14 nM	110 nM	8 µL/min/1e6 cells	100 nM	43 nM	2.6^[d]	33 nM
